From paper PMC9095466 (Nature, 2022)
Values joined by “and” are separate entries in the source; they are usually repeats but may differ in a detail not shown here. Equal values may be shown once. Read-outs that look alike come from different tables or passages of the source. *1 amine or outer side, *2 acyl side, *3 side chain or, on linkers, in order; H or OH if unused. Where a SMILES comes first, the peptide text is derived from it. Bridges are numbered along the chain shown (N, C = ends). [ ]: non-standard residue; d: D form. The star is where a group is joined. X1 = CC[C@H](C)[C@@H](N[*:1])[C@@H](O)CC(=O)O[C@H](C(=O)[C@H](C)C(=O)[*:2])C(C)C; NMeY = CN[C@@H](Cc1ccc(O)cc1)C(=O)O; dNMeL = CN[C@H](CC(C)C)C(=O)O; Pyruvoyl = CC(=O)C(=O)*

Legend:
human TMPRSS2 = human TMPRSS2 (Homo sapiens, UniProt O15393); experiment: cell-based; details: for TMPRSS2 activity (%): Figure 1B, single experiments N1-N3
[1] = test system: SARS-CoV-2 lineage B strain (VIDO); experiment: microbe, parasite or virus in culture; format: cell-based; details: for Nucleocapsid / dsRNA: Figure 2a, two replicates; for Nucleocapsid: DMSO control about 91-94; for dsRNA: DMSO control about 93-95; for inhibition at 0.1 µM: read-out: inhibition of SARS-CoV-2 infection
Vero E6 cells = experiment: Cytotoxicity assay (Cell Titer-Glo 2.0) in Vero E6 cells; format: cell-based; details: 24 h, single experiments N1-N4
Method: (§1) Calu-3 and Vero E6 cells (2500 or 10,000 cells for samples, 80–20,000 cells for standard curve) were seeded in 96-well plates. Following a 24-h incubation at 37 °C, 5% CO2, cells were washed with D-PBS and compounds added (10 µM) for an additional 24-h incubation. Cellular viability was assessed using Cell Titer-Glo 2.0 Cell Viability Assay (Promega) according to the manufacturer’s instructions. The number of viable cells was extrapolated using the standard curve. Cellular viability in Vero E6 cells was expressed relative (%) to vehicle-treated cells. Data are from four independent experiments (mean ± s.d.).

[2] = as above; format: cell-based; details: African green monkey, % Viability of Vero E6 cells
Method: as §1

SARS-CoV-2 (VIDO) [3] = format: cell-based; design: plaque assay titre, Figure 2c: unit not given beside the values; details: for reduction of viral titre (plaque assay): supernatant of infected Calu-3 cells, vs DMSO-treated infected control; for plaque assay titre, Figure 2c: replicate columns
SARS-CoV-2 (VIDO) [4] = experiment: microbe, parasite or virus in culture; format: cell-based; details: Severe acute respiratory syndrome coronavirus 2; colonoids pretreated 3 h with 100 nM, infected 3 days, vs DMSO-treated; read-out: inhibition of SARS-CoV-2 infection in colonoids
[5] = test system: SARS-CoV-2 (USA-WA1/2020, lineage A); design: species or system K18-hACE2 mice; details: mouse, in vivo
[6] = test system: SARS-CoV-2 (USA-WA1/2020, lineage A); experiment: K18-hACE2 mouse model of SARS-CoV-2, IHC of nucleocapsid with digital image analysis; format: in vivo, K18-hACE2 mice; details: individual mice, 8-day regimen, tissue at death or end-point
Method: To detect viral antigen, sections were labelled with anti-SARS-CoV-2 nucleocapsid protein rabbit IgG monoclonal antibody (GeneTex; GTX635679) at a 1:5,000 dilution and processed using a Leica Bond Max automated IHC stainer. Leica Bond Polymer Refine Detection (Leica; DS9800) with DAB was used as the chromogen. Image acquisition was performed using a Roche Ventana DP200 slide scanner. Digital image analysis was performed using QuPath software[65],[66] v.0.2.3. Tissues were annotated to include all available lung tissue or all brain tissue excluding cerebellum, as cerebellar tissue was not available for all mice. Following annotation, automated detection was performed using automated SLIC superpixel segmentation with a DAB mean detection threshold of 0.18892.

[7] = test system: SARS-CoV-2 (USA-WA1/2020, lineage A); format: in vivo, K18-hACE2 mice; details: Figure S8 C, tissue plaque assay, individual animals
[8] = test system: SARS-CoV-2 (USA-WA1/2020, lineage A); experiment: K18-hACE2 mouse model of SARS-CoV-2, H&E histopathology of lung and brain; details: 8-day regimen
Method: For histological examination, mouse lungs and brains were collected directly after euthanasia and placed in 10% formalin for more than 72 h, after which tissues were embedded in paraffin. Tissue sections (4 μm) were analysed after staining with H&E and scored blinded by an anatomic pathologist. For lung, scores were applied based on the percentage of each tissue type (alveolus, vessels and so on) affected using the following criteria: (0) normal; (1) less than 10% affected; (2) 10–25% affected; (3) 26–50% affected; and (4) more than 50% affected[64]. Assessment of lung pathology in K18-hACE2 mice infected with the SARS-CoV-2 B.1.617.2 (Delta) VOC after single-dose treatment was performed on IHC sections counterstained with haematoxylin. For brains, histological scoring was assessed for perivascular inflammation using the most severely affected vessel and the following criteria: (0) no perivascular inflammation; (1) incomplete cuff one cell layer thick; (2) complete cuff one cell layer thick; (3) complete cuff two to three cells thick; and (4) complete cuff four or more cells thick. Necrotic cells in the neuroparenchyma were assessed per 0.237 mm^2 field using the most severely affected area and the following criteria: (0) no necrotic cells; (1) rare individual necrotic cells; (2) fewer than 10 necrotic cells; (3) 11 to 25 necrotic cells; (4) 26 to 50 necrotic cells; and (5) greater than 50 cells.

SARS-CoV-2 = test system: SARS-CoV-2; design: method as in PMID 33495306; details: pneumocyte-like cells; read-out: EC50 against SARS-CoV-2 infection; cited from earlier work
[9] = Severe acute respiratory syndrome coronavirus 2, Calu-3
[10] = individual mice, tissue at death or end-point

Sequence of human TMPRSS2 (O15393 whole entry): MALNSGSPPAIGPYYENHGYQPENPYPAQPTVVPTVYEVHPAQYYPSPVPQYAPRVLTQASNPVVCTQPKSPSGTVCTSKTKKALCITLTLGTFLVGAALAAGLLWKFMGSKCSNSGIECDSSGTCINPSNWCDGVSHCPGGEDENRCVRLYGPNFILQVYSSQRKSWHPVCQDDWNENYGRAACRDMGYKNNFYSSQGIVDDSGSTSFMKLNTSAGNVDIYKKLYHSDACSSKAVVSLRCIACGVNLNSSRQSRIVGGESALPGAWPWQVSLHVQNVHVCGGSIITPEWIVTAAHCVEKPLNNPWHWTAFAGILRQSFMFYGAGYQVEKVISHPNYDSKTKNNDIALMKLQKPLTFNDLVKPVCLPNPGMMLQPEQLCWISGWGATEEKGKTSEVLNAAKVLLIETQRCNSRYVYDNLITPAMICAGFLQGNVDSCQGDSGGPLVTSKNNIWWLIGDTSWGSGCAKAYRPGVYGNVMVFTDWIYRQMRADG

CC(NC(=O)C(CCC(N)=O)NC(=O)C(N)CCCNC(=N)N)C(=O)NC(CCCNC(=N)N)C(=O)c1nc2ccccc2s1 (stereo not shown) [Compound N-0100]
inhibition of TMPRSS2 activity (reduction of substrate proteolysis) (human TMPRSS2; 10 nM compound, 24 h, vs untreated/vehicle TMPRSS2-expressing Vero E6 cells): did not inhibit
TMPRSS2 activity (%) (human TMPRSS2): 113.572% and 108.611% and 101.926%
Nucleocapsid [1]: 59.9825 and 100
dsRNA [1]: 53.1735 and 98.3497
inhibition at 0.1 µM [1, 9]: < 25%
% Viability of Vero E6 cells (Vero E6 cells; 10 μM compound, relative to vehicle (DMSO 0.01%), 10 µM): 122.116% and 96.727% and 87.5998% and 134.594%

N=C(N)NCCCCC(=O)NC(CCC(N)=O)C(=O)NC(CC1CCCCC1)C(=O)NC(CCCNC(=N)N)C(=O)c1nc2ccccc2s1 (stereo not shown) [Compound N-0678]
TMPRSS2 activity (%) (human TMPRSS2): 91.6478% and 104.935% and 97.8749%
inhibition at 0.01 µM (human TMPRSS2; Vero C1008, 10 nM compound, 24 h, vs untreated/vehicle TMPRSS2-expressing Vero E6 cells, read-out: inhibition of TMPRSS2 activity (reduction of substrate proteolysis)): 5%
Nucleocapsid [1]: 70.7269 and 93.9071
dsRNA [1]: 64.9837 and 89.8579
inhibition at 0.1 µM [1, 9]: < 23%
viability at 24 h, 10 µM [2]: 113%

CS(=O)(=O)NC(CCC(N)=O)C(=O)NC(Cc1ccccc1)C(=O)NC(CCCNC(=N)N)C(O)c1nc2ccccc2s1 (stereo not shown) [N-0385(OH), Ms-QFR-Kbt(OH)]
reduction in TMPRSS2 activity (human TMPRSS2; cells treated with up to 10 μM): no significant reduction
inhibition of SARS-CoV-2 infection in dose-response ([1]; Calu-3 cells, concentrations up to 1 μM): substantial inhibition was not observed
Nucleocapsid [1]: 67.4057 and 91.7182
dsRNA [1]: 60.8663 and 93.4144
EC50 ([1]; Severe acute respiratory syndrome coronavirus 2, Calu-3, read-out: SARS-CoV-2 VIDO Nucleocapsid EC50 ± SE): > 1000 nM
inhibition at 0.1 µM [1, 9]: < 23%
Figure 2b dose-response, Mean ([1]; log [C] (nM) 0.20412): 76.2535
Figure 2b dose-response, Mean ([1]; log [C] (nM) 0.90309): 92.6293
Figure 2b dose-response, Mean ([1]; log [C] (nM) 1.60206): 68.5403
Figure 2b dose-response, Mean ([1]; log [C] (nM) 2.30103): 90.4217
Figure 2b dose-response, Mean ([1]; log [C] (nM) 3): 72.2184
Figure 2b dose-response, Mean ([1]; log [C] (nM) -0.49485): 87.0011
Figure 2b dose-response, Mean ([1]; log [C] (nM) -1.19382): 84.82
reduction of viral titre (plaque assay) (SARS-CoV-2 (VIDO) [3]; 40 nM): did not induce reduction
plaque assay titre, Figure 2c (SARS-CoV-2 (VIDO) [3]; 40 nM): 240000 and 1067000 and 627000 and 715000 and 1050000 and 440000 and 310000 (2×) and 190000 and 70000 and 400000 and 350000 and 264000 and 242000
reduction of viral titre (plaque assay) (SARS-CoV-2 (VIDO) [3]; 200 nM): did not induce reduction
plaque assay titre, Figure 2c (SARS-CoV-2 (VIDO) [3]; 200 nM): 200000 and 150000 (2×) and 30000 and 500000 (4×) and 780000 and 594000 and 286000 and 190000 and 950000
inhibition at 0.1 µM (SARS-CoV-2 (VIDO) [4]): < 20%
average weight loss at 6 dpi [5]: 12%
survival to the end-point (14 dpi) [5]: 10%
weight loss at the study end-point [5]: 15%
Brain No. Positive (IHC detections) [6]: 205622 and 308647 and 423604 and 84 and 143563 and 207074 and 97743 and 210 and 4043 and 310256
Brain No. Positive per mm^2 [6]: 4555.9 per mm^2 and 7896.3 per mm^2 and 7494 per mm^2 and 2.578 per mm^2 and 3909.6 per mm^2 and 5209.1 per mm^2 and 2144.6 per mm^2 and 10.67 per mm^2 and 137.97 per mm^2 and 6010.9 per mm^2
Brain Positive % [6]: 45.15% and 78.61% and 74.5% and 0.0256% and 38.77% and 51.89% and 21.4% and 0.1052% and 1.361% and 59.5%
Lung No. Positive (IHC detections) [6]: 39230 and 61582 and 572 and 191 and 315 and 37366 and 98 and 384 and 178
Lung No. Positive per mm^2 [6]: 2703.8 per mm^2 and 1622.2 per mm^2 and 26.11 per mm^2 and 8.074 per mm^2 and 15.79 per mm^2 and 10.94 per mm^2 and 1638.9 per mm^2 and 3.505 per mm^2 and 17.97 per mm^2 and 6.38 per mm^2
Lung Positive % [6]: 26.59% and 15.97% and 0.2589% and 0.0798% and 0.1558% and 0.1086% and 16.31% and 0.0348% and 0.1784% and 0.063%
PFU/g ([7]; Females): 15000000 PFU/g and 1441176 PFU/g and 8676471 PFU/g and 0 PFU/g and 2014706 PFU/g
PFU/mL ([7]; Females): 3000000 PFU/mL and 288235 PFU/mL and 1735294 PFU/mL and 0 PFU/mL and 402941 PFU/mL
PFU/g ([7]; Males): 0 PFU/g and 9852941 PFU/g and 720588 PFU/g
PFU/mL ([7]; Males): 0 PFU/mL and 1970588 PFU/mL and 144118 PFU/mL
Brain lesions (H&E) ([8]; N-0385: surviving mice, day 14): reduced
Perivascular infiltrates in CNS score ([8]; individual mice, most severely affected vessel): 0 and 2 and 1
Alveolar cells score [8, 10]: 0 and 1 ((1) <10% affected) and 2 ((2) 10–25% affected)
Alveolar edema score [8, 10]: 0 and 1 ((1) <10% affected) and 2 ((2) 10–25% affected)
Alveolar fibrin score [8, 10]: 0 and 1 ((1) <10% affected) and 2 ((2) 10–25% affected)
Fibrosis score [8, 10]: 0
Interstitial infiltrates in lung score [8, 10]: 0 and 1 ((1) <10% affected) and 3 ((3) 26–50% affected)
Lymphoid hyperplasia score [8, 10]: 0
Perivascular infiltrate in lung score [8, 10]: 1 ((1) <10% affected) and 3 ((3) 26–50% affected) and 0
Type II pneumocyte hyperplasia score [8, 10]: 0 and 1 ((1) <10% affected) and 3 ((3) 26–50% affected)

CC[C@H](C)[C@H]1NC(=O)[C@@H](NC(=O)[C@@H](CC(C)C)N(C)C(=O)[C@@H]2CCCN2C(=O)C(C)=O)[C@@H](C)OC(=O)[C@H](Cc2ccc(OC)cc2)N(C)C(=O)[C@@H]2CCCN2C(=O)[C@H](CC(C)C)NC(=O)[C@@H](C)C(=O)[C@H](C(C)C)OC(=O)C[C@@H]1O [Plitidepsin] (Pyruvoyl-P[dNMeL]T[X1]LP[NMeY](Me); ester 3-C)
EC50 (SARS-CoV-2): 1.62 nM

Triton X-100 [reference compound]
% Viability of Vero E6 cells (Vero E6 cells; Triton X-100 0.01% toxicity control): 0.08115% and 6.372% and 5.985% and 2.918%
